Results taken from patent US8574563B2 (Bristol-Myers Squibb Company, priority 2006, dated 2013).

test system: HCV 1b-377-neo replicon cells; assay: HCV replicon assay, HCV 1b-377-neo replicon cells (1b FRET); assay type: cell-based, Hepatitis C virus genotype 1b; settings: HCV 1b-377-neo replicon cells; HCV 1b genotype; read-out: EC50 range against HCV 1b (Table 2, Range)
Outline: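 FRET-based replicon assay in HCV 1b-377-neo cells, including a comparison line carrying the NS5A Y2065H mutation that confers resistance to a reference compound.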

`C[C@@](O)(C(=O)N1CCC[C@H]1c1ncc(-c2ccc(-c3ccc(-c4cnc([C@@H]5CCCN5C(=O)[C@@](C)(O)c5ccccc5)[nH]4)cc3)cc2)[nH]1)c1ccccc1` [Example 3, (2S,2′S)-1,1′-(4,4′-biphenyldiylbis(1H-imidazole-5,2-diyl(2)-2,1-pyrrolidinediyl))bis(1-oxo-2-phenyl-2-propanol)] and `COC(=O)N[C@@H](C(=O)N1CCC[C@H]1c1ncc(-c2ccc(-c3ccc(-c4cnc([C@@H]5CCCN5C(=O)Cc5cc(C)no5)[nH]4)cc3)cc2)[nH]1)c1ccccc1` [Example 84-74, methyl ((1R)-2-((2)S-2-(5-(4′-(2-((2S)-1-((3-methyl-5-isoxazolyl)acetyl)-2-pyrrolidinyl)-1H-imidazol-5-yl)-4-biphenylyl)-1H-imidazol-2-yl)-1-pyrrolidinyl)-2-oxo-1-phenylethyl)carbamate] fall in the same range of EC50: 0.001 to 0.999 nM for the first, 0.001 to 0.999 nM for the second.

`CN(C)[C@@H](C(=O)N1CCC[C@H]1c1ncc(-c2ccc(-c3ccc(-c4cnc([C@@H]5CCCN5C(=O)c5ccc(N6CCOCC6)cc5)[nH]4)cc3)cc2)[nH]1)c1ccccc1` [Example 94-9, (1R)-N,N-dimethyl-2-((2S)-2-(5-(4′-(2-((2S)-1-(4-(4-morpholinyl)benzoyl)-2-pyrrolidinyl)-1H-imidazol-5-yl)-4-biphenylyl)-1H-imidazol-2-yl)-1-pyrrolidinyl)-2-oxo-1-phenylthanamine] gave an EC50 of 0.001 to 0.999 nM.

same assay, conditions: Hepatitis C virus, HCV 1b-377-neo replicon cells; HCV 1b genotype; read-out: EC50 range against HCV 1b (Table 2, Range)

First: COC(=O)N[C@@H](C(=O)N1CCC[C@H]1c1ncc(-c2ccc(-c3ccc(-c4cnc([C@@H]5CCCN5C(=O)[C@H](NC(=O)OC)C(C)C)[nH]4)cc3)cc2)[nH]1)C(C)C [Example 26, methyl ((1R)-1-(((2S)-2-(5-(4′-(2-((2S)-1-((2R)-2-((methoxycarbonyl)amino)-3-methylbutanoyl)-2-pyrrolidinyl)-1H-imidazol-5-yl)-4-biphenylyl)-1H-imidazol-2-yl)-1-pyrrolidinyl)carbonyl)-2-methylpropyl)carbamate]
Second: COC(=O)N[C@H](C(=O)N1CCC[C@H]1c1ncc(-c2ccc(-c3ccc(-c4cnc([C@@H]5CCCN5C(=O)[C@@H](NC(=O)OC)C(C)C)[nH]4)cc3CO)cc2)[nH]1)C(C)C [Example M119, methyl ((1S)-1-(((2S)-2-(5-(2-(hydroxymethyl)-4′-(2-((2S)-1-((2S)-2-((methoxycarbonyl)amino)-3-methylbutanoyl)-2-pyrrolidinyl)-1H-imidazol-5-yl)-4-biphenylyl)-1H-imidazol-2-yl)-1-pyrrolidinyl)carbonyl)-2-methylpropyl)carbamate]
The EC50 of the first is lower: 1 to 99 nM for the first, 100 to 999 nM for the second.

`CC(=O)CCC(=O)N1CCC[C@H]1c1ncc(-c2ccc(-c3ccc(-c4cnc([C@@H]5CCCN5C(=O)[C@@H](c5ccccc5)N5CCCCC5)[nH]4)cc3)cc2)[nH]1` [Example 107-5, 5-oxo-5-((2S)-2-(5-(4′-(2-((2S)-1-((2R)-2-phenyl-2-(1-piperidinyl)acetyl)-2-pyrrolidinyl)-1H-imidazol-5-yl)-4-biphenylyl)-1H-imidazol-2-yl)-1-pyrrolidinyl)-2-pentanone] and `Cc1nc(CC(=O)N2CCC[C@H]2c2ncc(-c3ccc(-c4ccc(-c5cnc([C@@H]6CCCN6C(=O)[C@@H](c6ccccc6)N6CCCCC6)[nH]5)cc4)cc3)[nH]2)cs1` [Example 107-25, 1-((1R)-2-((2S)-2-(5-(4′-(2-((2S)-1-((2-methyl-1,3-thiazo1-4-yl)acetyl)-2-pyrrolidinyl)-1H-imidazol-5-yl)-4-biphenylyl)-1H-imidazol-2-yl)-1-pyrrolidinyl)-2-oxo-1-phenylethyl) piperidine] fall in the same range of EC50: 0.001 to 0.999 nM for the first, 0.001 to 0.999 nM for the second.

`COC(=O)NCC(=O)N1[C@@H]2C[C@@H]2C[C@H]1c1nc(-c2ccc(-c3ccc(-c4c[nH]c([C@@H]5C[C@H]6C[C@H]6N5C(=O)CNC(=O)OC)n4)cc3)cc2)c[nH]1` [Example M134, methyl (2-((1R,3S,5R)-3-(4-(4′-(2-((1R,3S,5R)-2-(((methoxy-carbonyl)amino)acetyl)-2-azabicyclo[3.1.0]hex-3-yl)-1H-imidazol-4-yl)-4-biphenylyl)-1H-imidazol-2-yl)-2-azabicyclo[3.1.0]hex-2-yl)-2-oxoethyl)carbamate] and `CC(C)[C@H](N)C(=O)N1[C@@H]2C[C@@H]2C[C@H]1c1nc(-c2ccc(-c3ccc(-c4cnc([C@@H]5C[C@H]6C[C@H]6N5C(=O)[C@@H](N)C(C)C)[nH]4)cc3)cc2)c[nH]1` [Example M140a-i, (2S)-1-((1R,3S,5R)-3-(4-(4′-(2-((1R,3S,5R)-2-((2S)-2-amino-3-methylbutanoyl)-2-azabicyclo[3.1.0]hex-3-yl)-1H-imidazol-5-yl)-4-biphenylyl)-1H-imidazol-2-yl)-2-azabicyclo[3.1.0]hex-2-yl)-3-methyl-1-oxo-2-butanamine] fall in the same range of EC50: 1 to 99 nM for the first, 1 to 99 nM for the second.

`COC(=O)N[C@@H](C(=O)N1CCC[C@H]1c1ncc(-c2ccc(-c3ccc(-c4cnc([C@@H]5CCCN5C(=O)Cc5cccnc5)[nH]4)cc3C)cc2)[nH]1)c1ccccc1` [Example 127, methyl ((1R)-2-((2S)-2-(5-(2′-methyl-4′-(2-((2S)-1-(3-pyridinylacetyl)-2-pyrrolidinyl)-1H-imidazol-5-yl)-4-biphenylyl)-1H-imidazol-2-yl)-1-pyrrolidinyl)-2-oxo-1-phenylethyl)carbamate] and `COC(=O)N[C@@H](C(=O)N1CCC[C@H]1c1ncc(-c2ccc(-c3ncc(-c4cnc([C@@H]5CCCN5C(=O)Cc5cccnc5)[nH]4)cn3)cc2)[nH]1)c1ccccc1` [Example 152j-3, methyl ((1R)-2-oxo-1-phenyl-2-((2S)-2-(5-(4-(5-(2-((2S)-1-(3-pyridinylacetyl)-2-pyrrolidinyl)-1H-imidazol-5-yl)-2-pyrimidinyl)phenyl)-1H-imidazol-2-yl)-1-pyrrolidinyl)ethyl)carbamate] fall in the same range of EC50: 0.001 to 0.999 nM for the first, 0.001 to 0.999 nM for the second.

`O=C(Cc1ccccc1F)N1CCC[C@H]1c1ncc(-c2ccc(-c3ccc(-c4cnc([C@@H]5CCCN5C(=O)[C@@H](c5ccccc5)N5CCCCC5)[nH]4)cc3)cc2)[nH]1` [Example 107-28] and `CCNC(=O)N1CCC[C@H]1c1ncc(-c2ccc(-c3ccc(-c4cnc([C@@H]5CCCN5C(=O)[C@H](NC(=O)OC)c5ccccc5)[nH]4)cc3)cc2)[nH]1` [Example 108, methyl ((1R)-2-((2S)-2-(5-(4′-(2-((2S)-1-(ethylcarbamoyl)-2-pyrrolidinyl)-1H-imidazol-5-yl)-4-biphenylyl)-1H-imidazol-2-yl)-1-pyrrolidinyl)-2-oxo-1-phenylethyl)carbamate] fall in the same range of EC50: 0.001 to 0.999 nM for the first, 0.001 to 0.999 nM for the second.

`COC(=O)N[C@@H](C(=O)N1CCC[C@H]1c1ncc(-c2ccc(-c3ccc(-c4cnc([C@@H]5CCCN5C(=O)[C@H]5CCCO5)[nH]4)cc3)cc2)[nH]1)c1ccccc1Cl` [Example 107-39, methyl ((1R)-1-(2-chlorophenyl)-2-oxo-2-((2S)-2-(5-(4′-(2-((2S)-1-((2R)-tetrahydro-2-furanylcarbonyl)-2-pyrrolidinyl)-1H-imidazol-5-yl)-4-biphenylyl)-1H-imidazol-2-yl)-1-pyrrolidinyl)ethyl) carbamate] and `COC(=O)N[C@@H](C(=O)N1CCC[C@H]1c1ncc(-c2ccc(-c3ccc(-c4cnc([C@@H]5CCCN5C(=O)[C@H](C)N)[nH]4)cc3)cc2)[nH]1)c1ccccc1` [Example 84, methyl ((1R)-2-((2S)-2-(5-(4′-(2-((2S)-1-L-alanyl-2-pyrrolidinyl)-1H-imidazol-5-yl)-4-biphenylyl)-1H-imidazol-2-yl)-1-pyrrolidinyl)-2-oxo-1-phenylethyl)carbamate] fall in the same range of EC50: 0.001 to 0.999 nM for the first, 0.001 to 0.999 nM for the second.

`COC(=O)N[C@@H](C(=O)N1CCC[C@H]1c1ncc(-c2ccc(-c3ccc(-c4cnc([C@@H]5CCCN5C(=O)C5(C)CCN(C(=O)OC(C)(C)C)CC5)[nH]4)cc3)cc2)[nH]1)c1ccccc1` [Example 84-12, tert-butyl 4-(((2S)-2-(5-(4′-(2-((2S)-1-((2R)-2-((methoxycarbonyl)amino)-2-phenylacetyl)-2-pyrrolidinyl)-1H-imidazol-5-yl)-4-biphenylyl)-1H-imidazol-2-yl)-1-pyrrolidinyl)carbonyl)-4-methyl-1-piperidinecarboxylate] and `CCN(CC)[C@@H](C(=O)N1CCC[C@H]1c1ncc(-c2ccc(-c3ccc(-c4cnc([C@@H]5CCCN5C(=O)C[C@@H](Cc5cccs5)NC(=O)OC)[nH]4)cc3)cc2)[nH]1)c1ccccc1` [cj-56, methyl ((1S)-3-((2S)-2-(5-(4′-(2-((2S)-1-((2R)-2-(diethylamino)-2-phenylacetyl)-2-pyrrolidinyl)-1H-imidazol-5-yl)-4-biphenylyl)-1H-imidazol-2-yl)-1-pyrrolidinyl)-3-oxo-1-(2-thienylmethyl)propyl)carbamate] fall in the same range of EC50: 0.001 to 0.999 nM for the first, 0.001 to 0.999 nM for the second.

First: COC(=O)N[C@@H](CCN(C)C)C(=O)N1CCC[C@H]1c1ncc(-c2ccc(-c3ccc(-c4cnc([C@@H]5CCCN5C(=O)[C@H](CCN(C)C)NC(=O)OC)[nH]4)cc3)cc2)[nH]1 [cj-146, dimethyl (4,4′-biphenyldiylbis(1H-imidazole-5,2-diyl(2S)-2,1-pyrrolidinediyl((2S)-4-(dimethylamino)-1-oxo-1,2-butanediyl)))biscarbamate]
Second: COC(=O)N[C@@H](Cc1cncn1C)C(=O)N1CCC[C@H]1c1ncc(-c2ccc(-c3ccc(-c4cnc([C@@H]5CCCN5C(=O)[C@@H](NC(=O)OC)C(C)C)[nH]4)cc3)cc2)[nH]1 [cj-46, methyl ((1S)-1-(((2S)-2-(5-(4′-(2-((2S)-1-((2S)-2-((methoxycarbonyl)amino)-3-(1-methyl-1H-imidazol-5-yl)propanoyl)-2-pyrrolidinyl)-1H-imidazol-5-yl)-4-biphenylyl)-1H-imidazol-2-yl)-1-pyrrolidinyl)carbonyl)-2-methylpropyl)carbamate]
The EC50 of the first is higher: 100 to 999 nM for the first, 0.001 to 0.999 nM for the second. The second is the more potent here.

`COC(=O)N[C@@H](Cc1cscn1)C(=O)N1CCC[C@H]1c1ncc(-c2ccc(-c3ccc(-c4cnc([C@@H]5CCCN5C(=O)[C@H](Cc5cscn5)NC(=O)OC)[nH]4)cc3)cc2)[nH]1` [cj-153, methyl ((1S)-2-((2S)-2-(5-(4′-(2-((2S)-1-((2S)-2-((methoxycarbonyl)amino)-3-(1,3-thiazol-4-yl)propanoyl)-2-pyrrolidinyl)-1H-imidazol-5-yl)-4-biphenylyl)-1H-imidazol-2-yl)-1-pyrrolidinyl)-2-oxo-1-(1,3-thiazol-4-ylmethyl)ethyl)carbamate] gave an EC50 of 0.001 to 0.999 nM.
